From ChEMBL document CHEMBL3124939, “Evaluation of nicotine and cotinine analogs as potential neuroprotective agents for Alzheimer's disease” (2014)
Calls of active or inactive are those of the source. No cut-off for these calls is given here.

Columns and labels:
Assay type in all cases: functional, cell-based
[1] = test system: Cerebral cortex neuron; assay: Neuroprotective activity in Sprague-Dawley rat primary cortical neurons assessed as inhibition of amyloid beta 1 to 42-induced toxicity by measuring cell viability at 0.1 uM by trypan blue exclusion assay
[2] = test system: Cerebral cortex neuron; assay: Neuroprotective activity in Sprague-Dawley rat primary cortical neurons assessed as inhibition of amyloid beta 1 to 42-induced toxicity by measuring cell viability at 100 uM by trypan blue exclusion assay
[3] = test system: Cerebral cortex neuron; assay: Neuroprotective activity in Sprague-Dawley rat primary cortical neurons assessed as inhibition of glutamate-induced toxicity by measuring cell viability at 10 uM by trypan blue exclusion assay
[4] = test system: Cerebral cortex neuron; assay: Neuroprotective activity in Sprague-Dawley rat primary cortical neurons assessed as inhibition of glutamate-induced toxicity by measuring cell viability at 0.01 uM by trypan blue exclusion assay

For `CN1CCC[C@H]1c1cccnc1`, the Activity [1] was “Active”.
`C[N+]1=CCC[C@H]1c1cccnc1` was tested, and the Activity [2] was “Active”.
For `CC12CC3CC(C)(C1)CC(N)(C3)C2`, the Activity [3] was “Active”.
With `CN1C(=O)CC[C@H]1c1cccnc1` the Activity [1] was “Active”.
In the case of `CN1CCC[C@H]1c1ccc[n+]([O-])c1`, the Activity [4] is reported as “Active”.
`O=C1CCC(c2cccnc2)N1` (stereo unspecified) was tested, and the Activity [2] was “Active”.
